Six compounds from patent publication US20240190876A1, “Tricyclic Urea Compounds As JAK2 V617F Inhibitors” (Incyte Corporation, priority 2022, published 2024) can be followed below.

SMILES strings stand for the structures.

In series [1] the test system is Phospho-STAT5 (Tyr694) in SET-2 cells. Description: STAT5 (Tyr694) Phosphorylation Cell Based Assay. As to conditions: Homo sapiens, pSTAT5 (Tyr694) HTRF, 2 hours, RPMI with 10% FBS, read-out: SET2 IC50. The method, then: SET-2 cells was purchased from DSMZ (Germany). RPMI1640 medium, Fetal Bovine Serum and 384-white sold flat-bottom small volume plate were purchased from Thermo Fisher Scientific (Waltham, MA). Phospho-STAT5 (Tyr694) HTRF kit was purchased from Perkin Elmer (Waltham, MA).
SET-2 cells were cultured in RPMI media with 20% FBS at 37° C. in humidified incubator supplied with 5% CO2. On the day of assay, the cells were centrifuged to remove the culture media and resuspended with prewarmed RPMI with 10% FBS.
Testing compounds were prepared by serial dilution in DMSO and 50 nL/well test compounds were transferred to the 384 white low volume cell culture plate (Greiner Bio-one) by ECHO liquid handler (Labcyte). The cells were then dispensed with Multidrop (Thermo Fisher, Waltham, MA) at 10 μL/well (7×10^6 cells/mL) with 0.5% DMSO in the final assay. After the treated cells were incubated for 2 hours at 37° C./5% CO2 incubator, 4 μL/well supplemented lysis buffer (100X blocking buffer diluted 25 fold in 4X lysis buffer, Perkin Elmer) were added and incubated at room temperature for 90 min on orbital shaker at 600 rpm. Phospho-STAT5 Cryptate antibody and Phospho-STAT5 d2 antibody (1:1 vol/vol) were premixed and diluted 20 fold with in the detection buffer (Perkin Elmer). 4 μL of the premixed antibody solution were added to each well followed with 24 hours incubation at room temperature on orbital shaker at 600 rpm. The product activity was determined by measuring the fluorescence at 620 nm and 665 nm on Pherastar microplate reader (BMG Labtech). A ratio is calculated (665/620) for each well. Wells with DMSO only served as the positive controls and wells containing high concentration of control compound were used as negative controls. IC50 determination was performed by fitting the curve of percent control activity versus the log of the compound concentration using the GraphPad Prism 7.0 software.
In general terms: In TR-FRET formats the signal depends on donor and acceptor labels being close together.

Series [2] in a line: In Vivo Pharmacokinetics, rat oral dosing. On the set-up: species or system Sprague Dawley rats. As to conditions: male, Sprague Dawley, oral gavage 3.0 mg/kg, plasma, cassette dosing. The method, then: Test compounds were administered to male Sprague Dawley rats or male and female Cynomolgus monkeys intravenously or via oral gavage. For intravenous (IV) dosing, test compounds were dosed at 1 mg/kg using a formulation of 10% dimethylacetamide (DMAC), 10% propylene glycol (PG) in acidified saline via IV bolus for rat or 10 min IV infusion for monkey. For oral (PO) dosing, test compounds were dosed at 3.0 mg/kg using 5% DMAC in 0.5% methylcellulose in citrate buffer (pH -2.5). Blood samples were collected at predose and various time points up to 24 hours postdose. All blood samples were collected using EDTA as the anticoagulant and centrifuged to obtain plasma samples. The plasma concentrations of test compounds were determined by LC-MS/MS methods. The measured plasma concentrations were used to calculate PK parameters by standard noncompartmental methods using Phoenix© WinNonlin software program (version 8.0, Pharsight Corporation) or similar software. In rats and monkeys, cassette dosing of test compounds were conducted to obtain preliminary PK parameters. In vivo pharmacokinetic experiments with male beagle dogs may be performed under the conditions described above.

Series [3] has as its system pSTAT5 signaling in SET-2 cells in whole blood. As to the kind of experiment: pSTAT5 SET-2 Whole Blood MSD Assay. It counts as cell-based. As to conditions: Homo sapiens, SET-2 cells with whole blood, 2 hour incubation, read-out: SET2 WB IC50. As for the experimental part:
SET-2 cells shipped from ABS, RPMI1640 medium, Fetal Bovine Serum from Gibco, Phospho-STAT5a,b Whole Cell Lysate Kit from Mesoscale, Retronectin (Recombinant Human Fibronectin Fragment) from TaKaRa, 96 well cell culture plate flat bottom from Corning, lysis buffer from Cell Signaling Technology, and sterile PBS from Gibco. Whole Blood from by BioIVT.
SET-2 cells were cultured in RPMI media with 20% FBS at 37° C. humidified incubator supplied with 5% CO2. On the day of the assay, 40 μL per well of diluted retronectin working solution was added to sterile 96-well clear flat bottom tissue culture plates (1:200 dilution of retronectin in sterile PBS) and incubated at 37C for 1 hour. After 1 hour, the retronectin working solution was aspirated and SET-2 cells were seeded at 100,000/well in RPMI+20% FBS. Cells were incubated overnight at 37° C. and 5% CO2.
The next day, the medium was removed and 40 μL of diluted compounds in serum-free RPMI and whole blood was added to the cells for a 2 hour incubation at 37° C. and 5% CO2. The compound starting concentration is 20 μM and 2.5 fold serial diluted down to 0.21 nM. The whole blood and compound mixture was then aspirated off using the BlueCat plate washer and washed 1× with PBS. Cells were lysed by adding 40 μL of 3X complete lysis buffer and shaken at room temperature for 45-60 minutes (complete lysis buffer consists of Cell Signaling Technology lysis buffer diluted to 3X and supplemented with Mesoscale's protease inhibitor, phosphatase I inhibitor, and phosphatase II inhibitor). The pSTAT5 MSD plates were blocked by adding 150 μL of Blocker A solution per well to the MSD plates and incubated at room temperature with shaking at 400 rpm for one hour or longer. After blocking, plates were washed 3X with 300 μL/well of IX Tris Wash Buffer. After lysis, added 25 μL per well of lysed sample was added to MSD plate and incubated with shaking at 4° C. wrapped in foil overnight. The next day, plates were washed again and 25 μL/well of diluted 1X Detection Antibody Solution, wrapped in foil, and incubated at room temperature with shaking at 400 rpm for 1 hour.
Plates were then washed again and lastly, 150 μL/well of 1X Read Buffer T was added to all wells. Plates were analyzed on MSD Discovery within 5 minutes. […] Data analysis was performed in GraphPad Prism using a 4-parameter fit and data was reported as Average ±SD.

For orientation: IC50 means the concentration at which inhibition is half-maximal. What is called AUC is the area under the concentration-time curve, a measure of exposure. In the case of `COc1ccc(-c2c(-c3cn(C)nc3OC)[nH]c3ncc4c(c23)n([C@H]2CC[C@@](C)(NC(=O)C3CC3)CC2)c(=O)n4C)cc1` [Example 1, N-((1s,4s)-4-(7-(3-Methoxy-1-methyl-1H-pyrazol-4-yl)-8-(4-methoxyphenyl)-3-methyl-2-oxo-3,6-dihydroimidazo[4,5-d]pyrrolo[2,3-b]pyridin-1(2H)-yl)-1-methylcyclohexyl)cyclopropanecarboxamide], the IC50 in series [1] is no more than 0.3 µM; in series [3], 2.5 to 5 µM. In series [2], this compound gave an AUC greater than 1.5 µM·h.
Consider `[2H]C([2H])([2H])n1ncc2cc(-c3c(-c4cn(C)nc4OC)[nH]c4ncc5c(c34)n([C@H]3CC[C@@](C)(NC(=O)C4CC4)CC3)c(=O)n5C)ccc21` [Example 2, N-((1s,4s)-4-(7-(3-Methoxy-1-methyl-1H-pyrazol-4-yl)-3-methyl-8-(1-(methyl-d3)-1H-indazol-5-yl)-2-oxo-3,6-dihydroimidazo[4,5-d]pyrrolo[2,3-b]pyridin-1(2H)-yl)-1-methylcyclohexyl)cyclopropanecarboxamide], for which the IC50 in series [1] was no more than 0.3 µM; in series [3], no more than 2.5 µM. For the same compound, the AUC in series [2] lay in the range of 0.5 to 1.5 µM·h.
In the case of `[2H]C([2H])([2H])n1cc(-c2[nH]c3ncc4c(c3c2-c2ccc(OC)cc2)n([C@H]2CC[C@@](C)(NC(=O)C3CC3)CC2)c(=O)n4C)c(F)n1` [Example 3, N-((1s,4s)-4-(7-(3-fluoro-1-(methyl-d3)-1H-pyrazol-4-yl)-8-(4-methoxyphenyl)-3-methyl-2-oxo-3,6-dihydroimidazo[4,5-d]pyrrolo[2,3-b]pyridin-1(2H)-yl)-1-methylcyclohexyl)cyclopropanecarboxamide], the IC50 in series [1] was no more than 0.3 µM; in series [3], 2.5 to 5 µM. In addition, the AUC in series [2] is greater than 1.5 µM·h.
With `[2H]C([2H])([2H])n1cc(-c2[nH]c3ncc4c(c3c2-c2ccc3c(cnn3C([2H])([2H])[2H])c2)n([C@H]2CC[C@@](C)(NC(=O)C3CC3)CC2)c(=O)n4C)c(F)n1` [Example 4, N-((1s,4s)-4-(7-(3-fluoro-1-(methyl-d3)-1H-pyrazol-4-yl)-3-methyl-8-(1-(methyl-d3)-1H-indazol-5-yl)-2-oxo-3,6-dihydroimidazo[4,5-d]pyrrolo[2,3-b]pyridin-1(2H)-yl)-1-methylcyclohexyl)cyclopropanecarboxamide], the IC50 is no more than 0.3 µM in series [1] and no more than 2.5 µM in series [3]. In series [2], this compound yielded an exposure (AUC) of no more than 0.5 µM·h.
Regarding `[2H]C([2H])([2H])n1ncc2cc(-c3c(-c4cn(CC)nc4F)[nH]c4ncc5c(c34)n([C@H]3CC[C@@](C)(NC(=O)C4CC4)CC3)c(=O)n5C)ccc21` [Example 5, N-((1s,4s)-4-(7-(1-Ethyl-3-fluoro-1H-pyrazol-4-yl)-3-methyl-8-(1-(methyl-d3)-1H-indazol-5-yl)-2-oxo-3,6-dihydroimidazo[4,5-d]pyrrolo[2,3-b]pyridin-1(2H)-yl)-1-methylcyclohexyl)cyclopropanecarboxamide], the results for the IC50 in series [1] and in series [3] were no more than 0.3 µM and no more than 2.5 µM, respectively. This compound also displayed an AUC in series [2] greater than 1.5 µM·h.
The corresponding values for `[2H]C([2H])([2H])n1cc(-c2[nH]c3ncc4c(c3c2-c2ccc(OC)cc2)n([C@H]2CC[C@@](C)(NC(=O)[C@H]3C[C@H]3F)CC2)c(=O)n4C([2H])([2H])[2H])c(F)n1` [Example 6, (1R,2R)-2-Fluoro-N-((1s,4S)-4-(7-(3-fluoro-1-(methyl-d3)-1H-pyrazol-4-yl)-8-(4-methoxyphenyl)-3-(methyl-d3)-2-oxo-3,6-dihydroimidazo[4,5-d]pyrrolo[2,3-b]pyridin-1(2H)-yl)-1-methylcyclohexyl)cyclopropane-1-carboxamide] are no more than 0.3 µM, no more than 2.5 µM and greater than 1.5 µM·h.
